Common to all, as to type: cell-based
One assay deals with T1, SST2 (Homo sapiens, UniProt P30874).
T1 construct: host or cells: PathHunter CHO-K1 SST2 cells
Nature of the assay: PathHunter CHO-K1 SST2 Internalization Assay. Conditions: PathHunter CHO-K1 SST2 cells; 90 min at 37 C; luminescence; read-out: Internalization EC50. On the procedure:
NDCs of the present invention were assessed in vitro using the human PathHunter CHO-K1 SST2 β-arrestin2 and PathHunter CHO-K1 SST2 Internalization Assays from DiscoverX. The CHO-K cells were seeded in 20 μLs of cell culture medium in a white-walled 384 well tissue culture-compatible plate at a density of 2500 cells/well. After a 48-hour incubation, cells were treated with 5 μLs of a 1:3 serially diluted SST2 NDC prepared at 5× concentration with a final top compound concentration of 10 uM for 90 min at 37 C and in 5% CO2. 11 dilutions were tested as well as one treatment that was compound free. After incubation, the media containing treatments were discarded and 20 μL of a working solution of Beta-Glo from Promega Beta-Go Assay System was added to each well. The plate was then incubated for 60 min at room temperature in the dark. Luminescence was measured using a Tecan plate reader. IC50 curves were generated using the nonlinear regression analysis (four-parameters) with GraphPad Prism 9. Results were the average of duplicates and are corrected for background.

The target in assay [1] is T2, human somatostatin receptor subtype 2 (Homo sapiens, UniProt P30874).
T2 construct: expressed in transfected cells
T2 sequence (P30874 whole entry): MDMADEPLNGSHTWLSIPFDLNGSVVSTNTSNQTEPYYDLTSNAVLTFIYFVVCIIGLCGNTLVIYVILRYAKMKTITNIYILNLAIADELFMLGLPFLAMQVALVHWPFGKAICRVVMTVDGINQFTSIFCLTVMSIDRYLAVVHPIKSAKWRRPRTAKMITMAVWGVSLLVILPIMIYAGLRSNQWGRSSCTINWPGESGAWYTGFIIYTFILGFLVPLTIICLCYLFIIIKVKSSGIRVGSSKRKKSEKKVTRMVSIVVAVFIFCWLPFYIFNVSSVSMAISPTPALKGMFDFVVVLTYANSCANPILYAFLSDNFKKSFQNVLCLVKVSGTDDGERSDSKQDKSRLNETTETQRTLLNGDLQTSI
Nature of the assay: Functional assay for SSTR2 agonists (HTRF cAMP). Conditions: CHO-K1 cells stably expressing human SST2; NKH477-stimulated cAMP; 20 min at 37 C; read-out: hSST2 cAMP Avg EC50. The text has this: General overview: All five SSTR subtypes are Gi coupled G-protein coupled receptors (GPCRs) that lead to decreases in intracellular cyclic AMP (cAMP) when activated by an agonist. Therefore, measurement of intracellular cAMP levels can be used to assess whether compounds of the invention are agonists of SSTR subtypes (John Kelly, Troy Stevens, W. Joseph Thompson, and Roland Seifert, Current Protocols in Pharmacology. 2005, 2.2.1-2.2). One example of an intracellular cAMP assay is described below.
Four days prior to the assay, 2,000 Chinese hamster ovary cells (CHO-K1, ATCC #CCL-61) stably expressing the human somatostatin receptor subtype 2 are plated in each well of a 96-well tissue culture-treated plate in Ham's F12 growth media (ThermoFisher #10-080-CM) supplemented with 10% donor bovine serum (Gemini Bio-Products #100-506), 100 U/mL penicillin; 100 ug/mL streptomycin, 2 mM L-glutamine (Gemini Bio-Products #400-110) and 0.2 mg/mL hygromycin B (GoldBio #31282-04-9). The cells are cultured at 37° C., 5% CO2 and 95% humidity. cAMP is measured with HTRF dynamic cAMP assay (Cisbio. #62AM5PEJ) per manufacturer's instructions. […] The cells are incubated for 20 minutes at 37° C. (the final concentration of the compounds of the invention are typically 0-10,000 nM). The cells are treated with 50 μL of lysis buffer (HRTF cAMP kit, Cisbio) and incubated at room temperature for 30 minutes with rotary shaking at 600 rpm, and then diluted with 150 μL of stimulation buffer and shaken for an additional five minutes at 300 rpm. The lysate is transferred to 384-well plates and incubated for 1-24 hours at room temperature, and cAMP accumulation is detected by d2-labeled cAMP and Anti-cAMP-Cryptate. The time-resolved fluorescent signal is read using a m1000 Pro (Tecan) or CLARIOStar (BMG Labtech) microplate reader, where the samples are excited with light at 340 nm and emission light is measured at 620 nm and 665 nm. The data is expressed as a calculation of the fluorescence ratio (665 nm/620 nm). The intracellular cAMP concentrations are calculated by regression to a standard curve and are plotted vs, the concentration of the compounds of the invention. The EC50 of the compounds are calculated using standard methods. All data manipulations are in GraphPad Prism v9 (GraphPad, San Diego, CA).
(TR-FRET usually uses a lanthanide donor and a delayed reading to cut background.)

Assay [2] concerns NCI-H524 human small cell lung cancer cells. Nature of the assay: H524 assay: inhibition of cell proliferation (CellTiter Glo). Conditions: 2 h treatment, washout, additional 70 h incubation. Here is the method:
NDCs of the present invention were assessed in an in vitro assay evaluating the inhibition of cell proliferation. NCI-H524 (ATCC) human small cell lung cancer cells were plated in 96-well V-bottom plates (Costar) at a concentration of 5,000 cells/well. 24 h later, the cells were treated for 2 h with a NDC. NDC starting dose was 1 uM and two-fold serial dilutions were done for a total of 11 points. After 2 h of treatment, cells were spun down, and the drug-containing media was removed, and fresh complete media was added and used to resuspend the cells, which were spun again. After removal of the media, the cells were resuspended in complete medium and incubated for an additional 70 h. Cell proliferation was assessed using the CellTiter Glo Assay according to the standard protocol (Promega). Luminescence was measured using a TECAN plate reader. Percent proliferation inhibition was calculated using the following formula: % inhibition=(Luminescence Control−Luminescence Treatment)/Luminescence Control*100. IC50 curves were generated using the nonlinear regression analysis (four-parameter) with GraphPad Prism 9.
(Cellular ATP, detected with luciferase, serves as a proxy for viable cell number.)

T1 sequence (P30874 whole entry): as above

Turning to `CC[C@H](C)[C@@H]([C@@H](CC(=O)N1CCC[C@H]1[C@H](OC)[C@@H](C)C(=O)N[C@H](C)[C@@H](O)c1ccccc1)OC)N(C)C(=O)[C@@H](NC(=O)[C@H](C(C)C)N(C)C(=O)OCc1ccc(NC(=O)[C@H](C)NC(=O)[C@@H](NC(=O)CCOCCC(=O)N(C)CC(=O)NCCNc2ncc(-c3cc(C)cc(F)c3)c(N3CCC(N)CC3)c2-c2nc3ccc(Cl)cc3[nH]2)C(C)C)c(O[C@@H]2O[C@H](C(=O)O)[C@@H](O)[C@H](O)[C@H]2O)c1)C(C)C` [Compound 134], the figures for the EC50 (on SST2; in assay [1]; in assay [2]) were 2.1 nM, 0.11 nM and 1200 nM, respectively.

For `CC[C@H](C)[C@@H]([C@@H](CC(=O)N1CCC[C@H]1[C@H](OC)[C@@H](C)C(=O)N[C@H](C)[C@@H](O)c1ccccc1)OC)N(C)C(=O)[C@@H](NC(=O)[C@H](C(C)C)N(C)C(=O)OCc1ccc(NC(=O)[C@H](C)NC(=O)[C@@H](NC(=O)CCOCCC(=O)NCCNc2ncc(-c3cc(C)cc(F)c3)c(N3CCC(N)CC3)c2-c2cc3ccc(C#N)cc3[nH]2)C(C)C)c(O[C@@H]2O[C@H](C(=O)O)[C@@H](O)[C@H](O)[C@H]2O)c1)C(C)C` [Compound 119], the EC50 on SST2 is 11 nM; in assay [1], 0.11 nM; in assay [2], 34 nM.

As to `CC[C@H](C)[C@@H]([C@@H](CC(=O)N1CCC[C@H]1[C@H](OC)[C@@H](C)C(=O)N[C@H](C)[C@@H](O)c1ccccc1)OC)N(C)C(=O)[C@@H](NC(=O)[C@H](C(C)C)N(C)C(=O)OCc1ccc(NC(=O)[C@H](C)NC(=O)[C@@H](NC(=O)C[C@@H](N)C(=O)NCCOCCOCCC(=O)NCCNc2ncc(-c3cc(C)cc(F)c3)c(N3CCC(N)CC3)c2-c2nc3ccc(Cl)cc3[nH]2)C(C)C)c(O[C@@H]2O[C@H](C(=O)O)[C@@H](O)[C@H](O)[C@H]2O)c1)C(C)C` [Compound 136], the EC50 stood at 3.5 nM at SST2, 0.29 nM in assay [1] and 540 nM in assay [2].

For the molecule `CC[C@H](C)[C@@H]([C@@H](CC(=O)N1CCC[C@H]1[C@H](OC)[C@@H](C)C(=O)N[C@H](C)[C@@H](O)c1ccccc1)OC)N(C)C(=O)[C@@H](NC(=O)[C@H](C(C)C)N(C)C(=O)OCc1ccc(NC(=O)[C@H](CCCNC(N)=O)NC(=O)[C@@H](NC(=O)C2(NC(=O)CCCC(=O)N(C)CC(=O)NCCNc3ncc(-c4cc(C)cc(F)c4)c(N4CCC(N)CC4)c3-c3nc4ccc(Cl)cc4[nH]3)CCN(CC(=O)O)CC2)C(C)C)cc1)C(C)C` [Compound 173], the EC50 on SST2 was determined as 19 nM; in assay [1], 0.24 nM; in assay [2], 52 nM.

Regarding `CC[C@H](C)[C@@H]([C@@H](CC(=O)N1CCC[C@H]1[C@H](OC)[C@@H](C)C(=O)N[C@H](C)[C@@H](O)c1ccccc1)OC)N(C)C(=O)[C@@H](NC(=O)[C@H](C(C)C)N(C)C(=O)OCc1ccc(NC(=O)[C@H](CCCNC(N)=O)NC(=O)[C@@H](NC(=O)c2cc(NCCOCCC(=O)N(C)CC(=O)NCCNc3ncc(-c4cc(C)cc(F)c4)c(N4CCC(N)CC4)c3-c3nc4ccc(Cl)cc4[nH]3)cc(C(=O)NCC(=O)O)c2)C(C)C)cc1)C(C)C` [Compound 162], the EC50 on SST2 came out at 4.7 nM; in assay [1], 0.27 nM; in assay [2], 60 nM.

Turning to `CC[C@H](C)[C@@H]([C@@H](CC(=O)N1CCC[C@H]1[C@H](OC)[C@@H](C)C(=O)N[C@H](C)[C@@H](O)c1ccccc1)OC)N(C)C(=O)[C@@H](NC(=O)[C@H](C(C)C)N(C)C(=O)OCc1ccc(NC(=O)[C@H](CCCNC(N)=O)NC(=O)[C@@H](NC(=O)C[C@@H](N)C(=O)NCCOCCNC(=O)c2cc(NCCOCCC(=O)NCCNc3ncc(-c4cc(C)cc(F)c4)c(N4CCC(N)CC4)c3-c3nc4cc(F)cc(OC)c4[nH]3)cc(C(=O)NCC(=O)O)c2)C(C)C)cc1)C(C)C` [Compound 164], the EC50 at SST2 turned out to be 4.1 nM; in assay [1], 0.35 nM; in assay [2] it was 27 nM.

`CC[C@H](C)[C@@H]([C@@H](CC(=O)N1CCC[C@H]1[C@H](OC)[C@@H](C)C(=O)N[C@H](C)[C@@H](O)c1ccccc1)OC)N(C)C(=O)[C@@H](NC(=O)[C@H](C(C)C)N(C)C(=O)OCc1ccc(NC(=O)[C@H](CCCNC(N)=O)NC(=O)[C@@H](NC(=O)CCOCCC(=O)NCCNc2ncc(-c3cc(C)cc(F)c3)c(N3CCC(N)CC3)c2-c2nc3ccc(Cl)cc3[nH]2)C(C)C)c(O[C@@H]2O[C@H](C(=O)N[C@@H](CCCCNC(=O)CCCCc3ccc(I)cc3)C(=O)O)[C@@H](O)[C@H](O)[C@H]2O)c1)C(C)C` [Compound 54]: the EC50 at SST2 was found to be 2.1 nM; in assay [1], 0.26 nM; in assay [2], 20 nM.

Turning to `CC[C@H](C)[C@@H]([C@@H](CC(=O)N1CCC[C@H]1[C@H](OC)[C@@H](C)C(=O)N[C@H](C)[C@@H](O)c1ccccc1)OC)N(C)C(=O)[C@@H](NC(=O)[C@H](C(C)C)N(C)C(=O)OCc1ccc(NC(=O)[C@H](CCCNC(N)=O)NC(=O)[C@@H](NC(=O)[C@H](CCC(=O)O)NC(=O)CCOCCC(=O)NCCNc2ncc(-c3cc(C)cc(F)c3)c(N3CCC(N)CC3)c2-c2nc3ccc(Cl)cc3[nH]2)C(C)C)c(C(F)(F)F)c1)C(C)C` [Compound 6], the EC50 came to 3.5 nM at SST2, 0.21 nM in assay [1] and 7300 nM in assay [2].

For the molecule `CC[C@H](C)[C@@H]([C@@H](CC(=O)N1CCC[C@H]1[C@H](OC)[C@@H](C)C(=O)N[C@H](C)[C@@H](O)c1ccccc1)OC)N(C)C(=O)[C@@H](NC(=O)[C@H](C(C)C)N(C)C(=O)OCc1ccc(NC(=O)[C@H](C)NC(=O)[C@@H](NC(=O)CCOCCC(=O)NCCNc2ncc(-c3cc(C)cc(F)c3)c(N3CCC(N)CC3)c2-c2nc3ccc(Cl)cc3[nH]2)C(C)C)c(O)c1)C(C)C` [Compound 17], the EC50 turned out to be 3.8 nM on SST2, 0.44 nM in assay [1] and 5.4 nM in assay [2].

In the case of `CC[C@H](C)[C@@H]([C@@H](CC(=O)N1CCC[C@H]1[C@H](OC)[C@@H](C)C(=O)N[C@H](C)[C@@H](O)c1ccccc1)OC)N(C)C(=O)[C@@H](NC(=O)[C@H](C(C)C)N(C)C(=O)OCc1ccc(NC(=O)[C@H](CCCNC(N)=O)NC(=O)[C@@H](NC(=O)c2cc(NC(=O)CCCC(=O)N(C)CC(=O)NCCNc3ncc(-c4cc(C)cc(F)c4)c(N4CCC(N)CC4)c3-c3nc4ccc(F)cc4[nH]3)cc(C(=O)NCC(=O)O)c2)C(C)C)cc1)C(C)C` [Compound 169], the results for the EC50 (on SST2; in assay [1]; in assay [2]) were 10 nM, 0.1 nM and 32 nM, respectively.

For `CC[C@H](C)[C@@H]([C@@H](CC(=O)N1CCC[C@H]1[C@H](OC)[C@@H](C)C(=O)N[C@H](C)[C@@H](O)c1ccccc1)OC)N(C)C(=O)[C@@H](NC(=O)C(C(C)C)N(C)C(=O)OCc1ccc(NC(=O)[C@H](CCCNC(N)=O)NC(=O)[C@@H](NC(=O)CCOCCC(=O)NCCNc2ncc(-c3cc(C)cc(F)c3)c(N3CCC(N)CC3)c2-c2nc3ccc(Cl)cc3[nH]2)C(C)C)c(O[C@@H]2O[C@H](C(=O)N3CC(N)C3)[C@@H](O)[C@H](O)[C@H]2O)c1)C(C)C` (stereo partly drawn) [Compound 232], the EC50 at SST2 was found to be 5.2 nM; in assay [1] it was 0.15 nM; in assay [2], 5 nM.

Broadly, the EC50 is the concentration that produces a half-maximal response.

For the origin of these results see patent publication US20260007758A1, “SO[…]-2 RECEPTOR (SST2R) NON-PEPTIDE DRUG CONJUGATES AND USES THEREOF” (Crinetics Pharmaceuticals, Inc., priority 2024, published 2026).
